Data from patent publication US6867185B2 (Bristol-Myers Squibb Company, priority 2001, dated 2005).
pIC50: −log10 of the molar value. Structures can show the parent of a compound that is named as a salt.

Experiments:
Format in all cases: biochemical
[1] = biological target: T1, HCV NS3/4A protease complex, BMS strain (genotype 1a) (Hepatitis C virus genotype 1a, UniProt P27958, C1454S/C1711G); assay: Recombinant HCV NS3/4A protease complex FRET peptide assay (BMS strain)
T1 construct: recombinant HCV NS3/4A protease complex (amino'acids 1027 to 1711); inferred from the pET21b vector and Ni-NTA purification; made in house; host or cells: Escherichia coli BL21 (DE3), pET21b
In short: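 Enzyme was NS3/4A complex (aa 1027-1711) from genotype 1a BMS strain, carrying C1454S and C1711G mutations plus a three-lysine tail, expressed in E. coli and Ni-NTA/size-exclusion purified to >90% purity.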

[2] = test system: human pancreatic chymotrypsin; assay: Specificity assay, chymotrypsin; settings: 2 hr pre-incubation
Description: (§1) The specificities of compounds of the present invention were determined against a variety of serine proteases: human neutrophil elastase (HNE), porcine pancreatic elastase (PPE) and human pancreatic chymotrypsin and one cysteine protease: human liver cathepsin B. In all cases a 96-well plate format protocol using colorimetric p-nitroaniline (pNA) substrate specific for each enzyme was used as described previously (U.S. Pat. No. 6,323,180) with some modifications to the serine protease assays. All enzymes were purchased from Sigma while the substrates were from Bachem.
(§2) Each assay included a 2 hr enzyme-inhibitor pre-incubation at RT followed by addition of substrate and hydrolysis to ˜30% conversion as measured on a Spectramax Pro microplate reader. Compound concentrations varied from 100 to 0.4 μM depending on their potency. […]
(§3) The percentage of inhibition was calculated using the formula: [1−((UVinh−UVblank)/(UVctl−UVblank))]×100 […]

[3] = biological target: T2, human liver cathepsin B (Homo sapiens, UniProt P07858); assay: Specificity assay, cathepsin B; settings: 2 hr pre-incubation
T2 construct: purchased Sigma; host or cells: human liver (as named)
Description: as §1, §2, §3

[4] = biological target: T3, porcine pancreatic elastase (PPE) (Sus scrofa, UniProt P00772); assay: Specificity assay, porcine pancreatic elastase; settings: 2 hr pre-incubation
T3 construct: purchased Sigma
Description: as §1, §2, §3

T1 sequence (P27958 1027-1711 C1454S/C1711G, one chain of several): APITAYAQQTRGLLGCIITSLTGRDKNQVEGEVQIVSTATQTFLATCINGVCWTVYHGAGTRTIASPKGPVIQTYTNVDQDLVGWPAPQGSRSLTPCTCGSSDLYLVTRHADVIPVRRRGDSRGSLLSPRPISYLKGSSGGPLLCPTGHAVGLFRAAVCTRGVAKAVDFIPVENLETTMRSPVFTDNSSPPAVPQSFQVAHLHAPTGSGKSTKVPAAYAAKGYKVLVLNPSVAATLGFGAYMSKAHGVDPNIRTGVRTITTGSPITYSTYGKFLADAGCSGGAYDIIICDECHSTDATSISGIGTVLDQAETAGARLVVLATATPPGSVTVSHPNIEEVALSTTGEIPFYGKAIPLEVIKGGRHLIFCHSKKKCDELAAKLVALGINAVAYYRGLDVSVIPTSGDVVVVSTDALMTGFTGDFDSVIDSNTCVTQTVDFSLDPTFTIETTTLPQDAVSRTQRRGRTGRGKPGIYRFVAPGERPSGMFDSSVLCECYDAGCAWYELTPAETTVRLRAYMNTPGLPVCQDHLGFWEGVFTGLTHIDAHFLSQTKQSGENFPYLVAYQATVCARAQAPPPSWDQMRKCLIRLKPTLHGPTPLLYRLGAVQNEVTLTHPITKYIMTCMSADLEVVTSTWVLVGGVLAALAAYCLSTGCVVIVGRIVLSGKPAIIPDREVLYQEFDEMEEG
T3 sequence (P00772 27-266): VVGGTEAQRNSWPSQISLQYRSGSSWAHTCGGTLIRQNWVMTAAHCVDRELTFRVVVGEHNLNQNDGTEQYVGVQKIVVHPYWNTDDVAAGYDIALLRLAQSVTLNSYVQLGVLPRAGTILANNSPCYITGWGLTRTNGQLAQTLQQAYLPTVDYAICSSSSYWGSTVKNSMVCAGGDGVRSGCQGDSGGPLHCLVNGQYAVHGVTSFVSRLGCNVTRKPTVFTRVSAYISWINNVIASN

Question: How did the pIC50 ([1]; IC50, HCV NS3/4A protease FRET assay in vitro, IC50 ranges) turn out when `COc1ccc2c(O[C@@H]3C[C@H]4C(=O)N[C@]5(C(=O)NS(=O)(=O)C6CC6)CC5/C=C/CCCC[C@H](N)C(=O)N4C3)cc(-c3ccccc3)nc2c1` (stereo partly drawn) [Compound 6, (1S,4R,6S,13S,17R)-7-trans-Cyclopropanesulfonic acid [13-amino-17-(7-methoxy-2-phenylquinolin-4-yloxy)-2,14-dioxo-3,15-diazatricyclo[13.3.0.0^4,6]octadec-7-ene-4-carbonyl]amide dihydrochloride] was run?
Answer: > 7.30

Question: And the pIC50 ([1]; IC50, against the BMS HCV NS3/4A complex)?
Answer: 7.68

Question: What about the pIC50 [2] of the same molecule?
Answer: < 4.00

Question: What about the pIC50 [3] of the same molecule?
Answer: < 4.00

Question: What about the pIC50 [4] of the same molecule?
Answer: < 4.00
